Data reported in patent publication US9206184B2, “Disubstituted benzothienyl-pyrrolotriazines and uses thereof” (BAYER INTELLECTUAL PROPERTY GmbH, priority 2011, dated 2015).

Experiments:
human FGFR-1 = human FGFR-1 (Homo sapiens, UniProt P11362); test: FGFR-1 high ATP kinase assay (TR-FRET); format: biochemical; conditions: 2 mM ATP; 15 min pre-incubation with enzyme; compounds of the invention
human FGFR-3 = human FGFR-3 (Homo sapiens (Human), UniProt P22607); test: FGFR-3 kinase assay (TR-FRET); format: biochemical; conditions: 10 μM ATP; 15 min pre-incubation with enzyme; compounds of the invention
human FGFR-3, sequence (P22607 397-806): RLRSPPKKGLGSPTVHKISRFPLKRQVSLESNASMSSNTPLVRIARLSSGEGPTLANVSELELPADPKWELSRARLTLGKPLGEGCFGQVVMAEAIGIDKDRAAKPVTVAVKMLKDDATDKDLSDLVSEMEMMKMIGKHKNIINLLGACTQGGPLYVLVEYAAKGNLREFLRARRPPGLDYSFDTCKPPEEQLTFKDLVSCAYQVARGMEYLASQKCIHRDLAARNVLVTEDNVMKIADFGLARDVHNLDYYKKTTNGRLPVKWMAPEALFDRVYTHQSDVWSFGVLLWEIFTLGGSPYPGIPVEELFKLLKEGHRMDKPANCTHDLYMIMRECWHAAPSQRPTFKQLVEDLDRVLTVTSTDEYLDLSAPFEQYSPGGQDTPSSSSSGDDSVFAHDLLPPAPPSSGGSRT

human FGFR-1, sequence (P11362 22-822 limits assumed): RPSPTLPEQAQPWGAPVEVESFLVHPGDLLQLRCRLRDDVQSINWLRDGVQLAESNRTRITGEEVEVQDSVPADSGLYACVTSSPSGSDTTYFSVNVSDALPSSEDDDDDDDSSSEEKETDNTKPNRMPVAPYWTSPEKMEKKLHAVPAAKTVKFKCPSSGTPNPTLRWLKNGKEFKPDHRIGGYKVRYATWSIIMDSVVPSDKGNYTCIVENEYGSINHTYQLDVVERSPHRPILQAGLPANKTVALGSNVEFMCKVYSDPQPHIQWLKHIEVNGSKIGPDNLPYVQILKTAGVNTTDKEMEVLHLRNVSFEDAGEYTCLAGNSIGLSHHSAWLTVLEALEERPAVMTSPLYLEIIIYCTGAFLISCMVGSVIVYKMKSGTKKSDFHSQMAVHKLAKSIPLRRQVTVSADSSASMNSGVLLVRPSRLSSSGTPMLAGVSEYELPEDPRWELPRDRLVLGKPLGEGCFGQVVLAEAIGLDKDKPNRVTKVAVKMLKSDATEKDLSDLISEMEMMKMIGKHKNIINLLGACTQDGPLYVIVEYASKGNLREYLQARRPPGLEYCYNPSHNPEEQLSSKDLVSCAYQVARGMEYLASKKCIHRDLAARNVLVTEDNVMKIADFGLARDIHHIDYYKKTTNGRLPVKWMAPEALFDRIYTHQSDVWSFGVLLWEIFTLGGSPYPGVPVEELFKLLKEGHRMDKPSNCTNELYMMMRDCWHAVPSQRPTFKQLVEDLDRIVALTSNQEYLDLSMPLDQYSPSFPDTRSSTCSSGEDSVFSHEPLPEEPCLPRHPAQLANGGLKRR

| IC50 (human FGFR-1) | IC50 (human FGFR-3) | Compound |
| --- | --- | --- |
| 0.017 µM | 0.0287 µM | CCOCc1c(-c2cc3cc(C)cc(OC)c3s2)c2c(N)ncnn2c1CN1CCNC(=O)C1(C)C [Example 95] |
| 0.0248 µM | 0.0369 µM | CCOCc1c(-c2cc3cc(C)cc(OC)c3s2)c2c(N)ncnn2c1CN1CCS(=O)(=O)CC1 [Example 99] |
| 0.0392 µM | 0.0398 µM | CCOCc1c(-c2cc3cc(C)cc(OC)c3s2)c2c(N)ncnn2c1CN1CC(F)(F)C1 [Example 102] |
| 0.0064 µM | 0.0071 µM | CCOCc1c(-c2cc3cc(C)cc(OC)c3s2)c2c(N)ncnn2c1C(=O)N[C@@H]1CCNC1=O [Example 106, 4-Amino-6-(ethoxymethyl)-5-(7-methoxy-5-methyl-1-benzothiophen-2-yl)-N-[(3R)-2-oxopyrrolidin-3-yl]pyrrolo[2,1-f][1,2,4]triazine-7-carboxamide] |
| 0.0112 µM | 0.0096 µM | CCOCc1c(-c2cc3cc(C)cc(OC)c3s2)c2c(N)ncnn2c1C(=O)N(C)C [Example 114] |
| 0.0088 µM | 0.0053 µM | CCOCc1c(-c2cc3cc(C)cc(OC)c3s2)c2c(N)ncnn2c1C(=O)N1CNC(=O)C1 [Example 117] |

Continued, compound first:

| Compound | IC50 (human FGFR-1) | IC50 (human FGFR-3) |
| --- | --- | --- |
| COc1cc(C)cc2cc(-c3c(CNCC(C)(C)O)c(C)n4ncnc(N)c34)sc12 [Example 77, 1-({[4-Amino-5-(7-methoxy-5-methyl-1-benzothiophen-2-yl)-7-methylpyrrolo[2,1-f][1,2,4]triazin-6-yl]methyl}amino)-2-methylpropan-2-ol formiate] | 0.0014 µM | 0.0038 µM |
| COc1cc(C)cc2cc(-c3c(CNCC(C)(C)O)c(C)n4ncnc(N)c34)sc12 [Example 78, 1-({[4-Amino-5-(7-methoxy-5-methyl-1-benzothiophen-2-yl)-7-methylpyrrolo[2,1-f][1,2,4]triazin-6-yl]methyl}amino)-2-methylpropan-2-ol] | 0.0017 µM | 0.002 µM |
| COc1cc(C)cc2cc(-c3c(CO)c(Cl)n4ncnc(N)c34)sc12 [Example 79, [4-Amino-7-chloro-5-(7-methoxy-5-methyl-1-benzothiophen-2-yl)pyrrolo[2,1-f][1,2,4]triazin-6-yl]methanol] | 0.0126 µM | 0.0179 µM |
| COc1cc(C)cc2cc(-c3c(CNCC(C)(C)O)c(Cl)n4ncnc(N)c34)sc12 [Example 81, 1-({[4-Amino-7-chloro-5-(7-methoxy-5-methyl-1-benzothiophen-2-yl)pyrrolo[2,1-f][1,2,4]triazin-6-yl]methyl}amino)-2-methylpropan-2-ol formiate] | 0.0019 µM | 0.0005 µM |
| COc1cc(C)cc2cc(-c3c(CNCC(C)(C)O)c(Cl)n4ncnc(N)c34)sc12 [Example 82, 1-({[4-Amino-7-chloro-5-(7-methoxy-5-methyl-1-benzothiophen-2-yl)pyrrolo[2,1-f][1,2,4]triazin-6-yl]methyl}amino)-2-methylpropan-2-ol] | 0.0034 µM | 0.016 µM |
| COc1cc(C)cc2cc(-c3c(C)c(CN4CCNCC4)n4ncnc(N)c34)sc12 [Example 84, 5-(7-Methoxy-5-methyl-1-benzothiophen-2-yl)-6-methyl-7-(piperazin-1-ylmethyl)pyrrolo[2,1-f]-[1,2,4]triazin-4-amine formiate] | 0.0037 µM | 0.0165 µM |
| CCOCc1c(-c2cc3cc(C)cc(OC)c3s2)c2c(N)ncnn2c1C(C)O (stereo not shown) [Example 90, 1-[4-Amino-6-(ethoxymethyl)-5-(7-methoxy-5-methyl-1-benzothiophen-2-yl)pyrrolo[2,1-f][1,2,4]-triazin-7-yl]ethanol] | 0.0099 µM | 0.011 µM |
| CCOCc1c(-c2cc3cc(C)cc(OC)c3s2)c2c(N)ncnn2c1C(O)C1CC1 (stereo not shown) [Example 91, [4-Amino-6-(ethoxymethyl)-5-(7-methoxy-5-methyl-1-benzothiophen-2-yl)pyrrolo[2,1-f][1,2,4]-triazin-7-yl](cyclopropyl)methanol] | 0.0529 µM | 0.0311 µM |
